Laboratory results from PubChem BioAssay (NCI).
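Protocol summary: plate cells (96-well), add compound at 5 concentrations, incubate 48 h, interpolate endpoints linearly. TGI is the concentration that stops growth completely.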

Legend:
Assay in all cases: NCI anticancer screen, dose series, 48 h
SF-295 CNS = test system: SF-295 CNS
EKVX NSCLC = test system: EKVX NSCLC
LOX IMVI melanoma = test system: LOX IMVI melanoma
CCRF-CEM leukemia = test system: CCRF-CEM leukemia
HOP-62 NSCLC = test system: HOP-62 NSCLC
SW-620 colon = test system: SW-620 colon
KM12 colon = test system: KM12 colon
RXF-631 renal = test system: RXF-631 renal
SNB-19 CNS = test system: SNB-19 CNS
UACC-62 melanoma = test system: UACC-62 melanoma
MALME-3M melanoma = test system: MALME-3M melanoma
NCI-H226 lung = test system: NCI-H226 lung
HCT-15 colon = test system: HCT-15 colon
SK-MEL-5 melanoma = test system: SK-MEL-5 melanoma
M14 melanoma = test system: M14 melanoma
DMS 114 small cell lung = test system: DMS 114 small cell lung
NCI-H460 lung = test system: NCI-H460 lung
NCI-H522 lung = test system: NCI-H522 lung
HT29 colon = test system: HT29 colon
IGROV1 ovarian = test system: IGROV1 ovarian
786-0 renal = test system: 786-0 renal
RPMI-8226 leukemia = test system: RPMI-8226 leukemia
LXFL 529 NSCLC = test system: LXFL 529 NSCLC
SK-MEL-2 melanoma = test system: SK-MEL-2 melanoma
OVCAR-5 ovarian = test system: OVCAR-5 ovarian
M19-MEL melanoma = test system: M19-MEL melanoma
SK-OV-3 ovarian = test system: SK-OV-3 ovarian
OVCAR-3 ovarian = test system: OVCAR-3 ovarian
U251 CNS = test system: U251 CNS
K-562 leukemia = test system: K-562 leukemia
XF 498 CNS = test system: XF 498 CNS
DMS 273 small cell lung = test system: DMS 273 small cell lung
HCC-2998 colon = test system: HCC-2998 colon
NCI-H23 lung = test system: NCI-H23 lung
MOLT-4 leukemia = test system: MOLT-4 leukemia
SN12C renal = test system: SN12C renal
OVCAR-4 ovarian = test system: OVCAR-4 ovarian
HOP-18 NSCLC = test system: HOP-18 NSCLC
UO-31 renal = test system: UO-31 renal
RXF 393 renal = test system: RXF 393 renal
ACHN renal = test system: ACHN renal
SF-539 CNS = test system: SF-539 CNS
HCT-116 colon = test system: HCT-116 colon
HOP-92 NSCLC = test system: HOP-92 NSCLC
TK-10 renal = test system: TK-10 renal
COLO 205 colon = test system: COLO 205 colon
SNB-75 CNS = test system: SNB-75 CNS
DLD-1 colon = test system: DLD-1 colon
SNB-78 CNS = test system: SNB-78 CNS
SF-268 CNS = test system: SF-268 CNS
A549 NSCLC = test system: A549 NSCLC
KM20L2 colon = test system: KM20L2 colon
A498 renal = test system: A498 renal
UACC-257 melanoma = test system: UACC-257 melanoma
OVCAR-8 ovarian = test system: OVCAR-8 ovarian
SK-MEL-28 melanoma = test system: SK-MEL-28 melanoma
HL-60(TB) leukemia = test system: HL-60(TB) leukemia
CAKI-1 renal = test system: CAKI-1 renal
SR leukemia = test system: SR leukemia

`CC(C)=CC1CCc2ccccc2N1S(=O)(=O)c1ccc(C)cc1` (stereo not given) showed a TGI (SF-295 CNS) of over 21.4 µM, a TGI (EKVX NSCLC) of over 100 µM and a TGI (LOX IMVI melanoma) of 12.6 µM. It also gave a TGI (CCRF-CEM leukemia) of over 100 µM, a TGI (HOP-62 NSCLC) of 14 µM and a TGI (SW-620 colon) of over 100 µM. It also gave a TGI (KM12 colon) of 6.16 µM, a TGI (RXF-631 renal) of over 100 µM and a TGI (SNB-19 CNS) of over 100 µM. The TGI (UACC-62 melanoma) was 16.1 µM, the TGI (MALME-3M melanoma) was 51.5 µM and the TGI (NCI-H226 lung) was 6.05 µM. It also gave a TGI (HCT-15 colon) of over 31.6 µM, a TGI (SK-MEL-5 melanoma) of 5.12 µM and a TGI (M14 melanoma) of 7.38 µM. The TGI (DMS 114 small cell lung) was 4.12 µM, the TGI (NCI-H460 lung) was 8.02 µM and the TGI (NCI-H522 lung) was 5.77 µM. The TGI (HT29 colon) was 3.24 µM, the TGI (IGROV1 ovarian) was over 100 µM and the TGI (786-0 renal) was 12.1 µM. The TGI (RPMI-8226 leukemia) was 5.07 µM, the TGI (LXFL 529 NSCLC) was over 47.2 µM and the TGI (SK-MEL-2 melanoma) was 7.12 µM. It also gave a TGI (OVCAR-5 ovarian) of over 31.6 µM, a TGI (M19-MEL melanoma) of 13.7 µM and a TGI (SK-OV-3 ovarian) of over 100 µM. It also gave a TGI (OVCAR-3 ovarian) of 4.25 µM, a TGI (U251 CNS) of 4.58 µM and a TGI (K-562 leukemia) of over 100 µM. It also gave a TGI (XF 498 CNS) of 26.8 µM, a TGI (DMS 273 small cell lung) of 1.59 µM and a TGI (HCC-2998 colon) of 7.95 µM. The TGI (NCI-H23 lung) was 5.7 µM, the TGI (MOLT-4 leukemia) was 10.3 µM and the TGI (SN12C renal) was over 100 µM. For the same compound, the TGI (OVCAR-4 ovarian) was over 31.6 µM, the TGI (HOP-18 NSCLC) was over 100 µM and the TGI (UO-31 renal) was over 100 µM. The TGI (RXF 393 renal) was 5.14 µM, the TGI (ACHN renal) was over 31.6 µM and the TGI (SF-539 CNS) was 3.14 µM. The TGI (HCT-116 colon) was 6.69 µM, the TGI (HOP-92 NSCLC) was 7.61 µM and the TGI (TK-10 renal) was over 31.6 µM. The TGI (COLO 205 colon) was 5.4 µM, the TGI (SNB-75 CNS) was over 25.1 µM and the TGI (DLD-1 colon) was over 100 µM. For the same compound, the TGI (SNB-78 CNS) was over 100 µM, the TGI (SF-268 CNS) was 85.8 µM and the TGI (A549 NSCLC) was 18.9 µM. The TGI (KM20L2 colon) was 3.12 µM, the TGI (A498 renal) was 6.98 µM and the TGI (UACC-257 melanoma) was 23.6 µM. It also gave a TGI (OVCAR-8 ovarian) of over 31.3 µM and a TGI (SK-MEL-28 melanoma) of over 40.1 µM.
`COc1cccc(C2C(C(=O)O)=C(CO)Oc3cc4c(cc32)OCO4)c1OC` (stereo not given) was tested, and the TGI (SF-295 CNS) was over 100 µM, the TGI (EKVX NSCLC) was over 100 µM and the TGI (LOX IMVI melanoma) was over 100 µM. For the same compound, the TGI (CCRF-CEM leukemia) was over 100 µM, the TGI (SW-620 colon) was over 100 µM and the TGI (RXF-631 renal) was over 100 µM. It also gave a TGI (SNB-19 CNS) of over 100 µM, a TGI (UACC-62 melanoma) of over 100 µM and a TGI (MALME-3M melanoma) of over 100 µM. For the same compound, the TGI (NCI-H226 lung) was over 100 µM, the TGI (HCT-15 colon) was over 100 µM and the TGI (SK-MEL-5 melanoma) was over 100 µM. It also gave a TGI (M14 melanoma) of over 100 µM, a TGI (NCI-H460 lung) of over 100 µM and a TGI (NCI-H522 lung) of over 100 µM. It also gave a TGI (IGROV1 ovarian) of over 100 µM, a TGI (HL-60(TB) leukemia) of over 100 µM and a TGI (RPMI-8226 leukemia) of over 100 µM. The TGI (LXFL 529 NSCLC) was over 100 µM, the TGI (SK-MEL-2 melanoma) was over 100 µM and the TGI (M19-MEL melanoma) was over 100 µM. The TGI (SK-OV-3 ovarian) was over 100 µM, the TGI (OVCAR-3 ovarian) was over 100 µM and the TGI (U251 CNS) was over 100 µM. The TGI (K-562 leukemia) was over 100 µM, the TGI (XF 498 CNS) was 94.7 µM and the TGI (NCI-H23 lung) was over 100 µM. It also gave a TGI (MOLT-4 leukemia) of over 100 µM, a TGI (SN12C renal) of over 100 µM and a TGI (HOP-18 NSCLC) of over 100 µM. It also gave a TGI (UO-31 renal) of over 100 µM, a TGI (ACHN renal) of over 100 µM and a TGI (SF-539 CNS) of over 100 µM. For the same compound, the TGI (CAKI-1 renal) was over 100 µM, the TGI (HOP-92 NSCLC) was over 100 µM and the TGI (TK-10 renal) was over 100 µM. For the same compound, the TGI (COLO 205 colon) was over 100 µM, the TGI (SNB-75 CNS) was over 100 µM and the TGI (DLD-1 colon) was over 100 µM. It also gave a TGI (SNB-78 CNS) of over 100 µM, a TGI (SF-268 CNS) of over 100 µM and a TGI (KM20L2 colon) of over 100 µM. The TGI (A498 renal) was over 100 µM, the TGI (OVCAR-8 ovarian) was over 100 µM and the TGI (SK-MEL-28 melanoma) was over 100 µM.
`COc1cc(/C=N/c2nncs2)ccc1O` was tested, and the TGI (SF-295 CNS) was over 100 µM, the TGI (EKVX NSCLC) was over 100 µM and the TGI (CCRF-CEM leukemia) was over 100 µM. For the same compound, the TGI (HOP-62 NSCLC) was over 100 µM, the TGI (SW-620 colon) was over 100 µM and the TGI (KM12 colon) was over 100 µM. It also gave a TGI (RXF-631 renal) of over 100 µM, a TGI (SNB-19 CNS) of over 100 µM and a TGI (UACC-62 melanoma) of over 100 µM. The TGI (MALME-3M melanoma) was over 100 µM, the TGI (NCI-H226 lung) was over 100 µM and the TGI (HCT-15 colon) was over 100 µM. For the same compound, the TGI (SK-MEL-5 melanoma) was over 100 µM, the TGI (M14 melanoma) was over 100 µM and the TGI (DMS 114 small cell lung) was over 100 µM. The TGI (NCI-H460 lung) was over 100 µM, the TGI (HT29 colon) was over 100 µM and the TGI (IGROV1 ovarian) was over 100 µM. The TGI (786-0 renal) was over 100 µM, the TGI (HL-60(TB) leukemia) was over 100 µM and the TGI (RPMI-8226 leukemia) was over 100 µM. It also gave a TGI (LXFL 529 NSCLC) of over 100 µM, a TGI (SK-MEL-2 melanoma) of over 100 µM and a TGI (OVCAR-5 ovarian) of over 100 µM. For the same compound, the TGI (M19-MEL melanoma) was over 100 µM, the TGI (SK-OV-3 ovarian) was over 100 µM and the TGI (U251 CNS) was over 100 µM. For the same compound, the TGI (K-562 leukemia) was over 100 µM, the TGI (XF 498 CNS) was over 100 µM and the TGI (DMS 273 small cell lung) was over 100 µM. For the same compound, the TGI (HCC-2998 colon) was over 100 µM, the TGI (NCI-H23 lung) was over 100 µM and the TGI (MOLT-4 leukemia) was over 100 µM. It also gave a TGI (SN12C renal) of over 100 µM, a TGI (OVCAR-4 ovarian) of over 100 µM and a TGI (HOP-18 NSCLC) of over 100 µM. The TGI (UO-31 renal) was over 100 µM, the TGI (RXF 393 renal) was over 100 µM and the TGI (ACHN renal) was over 100 µM. It also gave a TGI (SF-539 CNS) of over 100 µM, a TGI (CAKI-1 renal) of over 100 µM and a TGI (HCT-116 colon) of over 100 µM. The TGI (HOP-92 NSCLC) was over 100 µM, the TGI (TK-10 renal) was over 100 µM and the TGI (SR leukemia) was over 100 µM. It also gave a TGI (SNB-75 CNS) of over 100 µM, a TGI (SNB-78 CNS) of over 100 µM and a TGI (SF-268 CNS) of over 100 µM. For the same compound, the TGI (A549 NSCLC) was over 100 µM, the TGI (KM20L2 colon) was over 100 µM and the TGI (A498 renal) was over 100 µM. For the same compound, the TGI (UACC-257 melanoma) was over 100 µM, the TGI (OVCAR-8 ovarian) was over 100 µM and the TGI (SK-MEL-28 melanoma) was over 100 µM.
